The structures appear in SMILES notation.

Format in all cases: cell-based
Assay [1] has as its system B16F10 (malignant melanoma). Put plainly: Antiproliferative activity (CCK-8 cell viability), B16F10. As to conditions: Mus musculus, 72 h, read-out: Antiproliferative activity in cancerous cells, B16F10 (inhibition of cell growth); for inhibition at 3.3 µM: B16-F10, Compound concentration: 3.3 μM; for inhibition at 10 µM: B16-F10, Compound concentration: 10 μM. The essentials:
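Cell growth inhibition was measured in B16F10 malignant melanoma cells with a Cell Counting Kit-8 viability assay. Cells were maintained in DMEM plus 10% fetal bovine serum, seeded at 2,000-5,000 cells/well in 96-well plates, and treated for 72 h at 37° C. Viability was expressed relative to DMSO-treated vehicle control wells.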

The test system of the next assay is HepG2 (liver cancer). In words: Antiproliferative activity (CCK-8 cell viability), HepG2. The note with it: Homo sapiens, 72 h, read-out: Antiproliferative activity in cancerous cells, HepG2 (inhibition of cell growth); for inhibition at 3.3 µM: Compound concentration: 3.3 μM; for inhibition at 10 µM: Compound concentration: 10 μM. The essentials: (§1)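 Growth inhibition graded in bands from percent viability against DMSO vehicle, read as CCK-8 absorbance at 450 nm. Compound tested at 3.3, 10 or 30 μM for 72 h, 37 °C; media contained 10% FBS: DMEM for HepG2/SW480, MEM for HeLa, F-12K for A549.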

For assay [2], the system named is A549 (lung adenocarcinoma). In words: Antiproliferative activity (CCK-8 cell viability), A549. The note with it: Homo sapiens, 72 h; for inhibition at 3.3 µM: Compound concentration: 3.3 μM; for inhibition at 3.3 µM / inhibition at 10 µM: read-out: Antiproliferative activity in cancerous cells, A549 (inhibition of cell growth); for inhibition at 10 µM: Compound concentration: 10 μM. The essentials: as §1

Assay [3] has as its system A431 (epidermoid carcinoma). In words: Antiproliferative activity (CCK-8 cell viability), A431. The note with it: Homo sapiens, 72 h; for inhibition at 3.3 µM: A-431, Compound concentration: 3.3 μM; for inhibition at 3.3 µM / inhibition at 10 µM: read-out: Antiproliferative activity in cancerous cells, A431 (inhibition of cell growth); for inhibition at 10 µM: A-431, Compound concentration: 10 μM. The essentials:
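This growth inhibition assay used A431 cells maintained in Dulbecco's modified Eagle's medium plus 10% fetal bovine serum. Cells were seeded in 96-well plates, treated with compound for 72 h at 37° C., and then given 10 μL CCK-8 solution. After a further 4 h, absorbance was read at 450 nm.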

A further assay concerns SW480 (colon cancer). Put plainly: Antiproliferative activity (CCK-8 cell viability), SW480. The note with it: Homo sapiens, 72 h; for inhibition at 3.3 µM: Compound concentration: 3.3 μM; for inhibition at 3.3 µM / inhibition at 10 µM: read-out: Antiproliferative activity in cancerous cells, SW480 (inhibition of cell growth); for inhibition at 10 µM: Compound concentration: 10 μM; for inhibition at 30 µM: Compound concentration: 30 μM, read-out: Antiproliferative activity in cancerous cells, SW480. The essentials: as §1

A further assay deals with HeLa (cervical cancer). Put plainly: Antiproliferative activity (CCK-8 cell viability), HeLa. The note with it: Homo sapiens, 72 h, read-out: Antiproliferative activity in cancerous cells, HELA (inhibition of cell growth); for inhibition at 3.3 µM: Compound concentration: 3.3 μM; for inhibition at 10 µM: Compound concentration: 10 μM. The essentials: as §1
Assay [4] concerns MDA-MB-231 (breast cancer). Put plainly: Antiproliferative activity (CCK-8 cell viability), MDA-MB-231. As to conditions: Homo sapiens, 72 h, read-out: Antiproliferative activity in cancerous cells, MDA-MB-231 (inhibition of cell growth); for inhibition at 3.3 µM: Compound concentration: 3.3 μM; for inhibition at 10 µM: Compound concentration: 10 μM. The essentials:
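Growth inhibition of human MDA-MB-231 breast cancer cells was assessed with a Cell Counting Kit-8. Cells cultured in DMEM plus 10% FBS were seeded at 2,000-5,000 cells/well, treated after attachment, and kept 72 h at 37° C. CCK-8 solution (10 μL) was added for 4 h, and absorbance at 450 nm was compared with DMSO-treated controls.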

As to `CC1=C(CC(=O)O)c2cc(F)ccc2/C1=C\c1ccc(COc2ccc(Cl)cc2)cc1C` [B73, (Z)-2-(1-(4-((4-Chlorophenoxy)methyl)-2-methylbenzylidene)-5-fluoro-2-methyl-1H-inden-3-yl)acetic acid], the inhibition at 3.3 µM in assay [1] is 30 to 50%; in the assay with HepG2 (liver cancer) it was under 30%; in assay [2], under 30%; in assay [3], at least 50%; in the assay with SW480 (colon cancer), 30 to 50%; in the assay on HeLa (cervical cancer), 30 to 50%. The inhibition at 3.3 µM in assay [4] was under 30%. Further, the inhibition at 10 µM in assay [1] was 30 to 50%; in the assay on HepG2 (liver cancer) it was at least 50%; in assay [2], at least 50%; in assay [3], at least 50%; with SW480 (colon cancer) it was at least 50%; in the assay on HeLa (cervical cancer), at least 50%. The inhibition at 10 µM in assay [4] is under 30%.
For `CC1=C(CC(=O)O)c2cc(F)ccc2/C1=C\c1ccc(Oc2ccc(Cl)nc2)cc1` [C65, (Z)-2-(1-(4-((6-Chloropyridin-3-yl)oxy)benzylidene)-5-fluoro-2-methyl-1H-inden-3-yl)acetic acid], the inhibition at 3.3 µM is 30 to 50% in assay [1]; 30 to 50% in the assay on HepG2 (liver cancer); under 30% in assay [2]; at least 50% in assay [3]; under 30% in the assay with SW480 (colon cancer); 30 to 50% in the assay with HeLa (cervical cancer). For the same compound, the inhibition at 3.3 µM in assay [4] is under 30%. Further, the inhibition at 10 µM in assay [1] was at least 50%; with HepG2 (liver cancer), at least 50%; in assay [2], at least 50%; in assay [3], at least 50%; with SW480 (colon cancer) it was under 30%; in the assay with HeLa (cervical cancer), at least 50%. Further, the inhibition at 10 µM in assay [4] was under 30%.
Consider `COc1ccc(CCCc2ccc(/C=C3/C(C)=C(CC(=O)O)c4cc(F)ccc43)cc2)cc1` [B126, (Z)-2-(5-Fluoro-1-(4-(3-(4-methoxyphenyl)propyl)benzylidene)-2-methyl-1H-inden-3-yl)acetic acid], for which the inhibition at 3.3 µM in assay [1] is under 30%; with HepG2 (liver cancer), 30 to 50%; in assay [2] it was under 30%; in assay [3] it was under 30%; with SW480 (colon cancer), under 30%; with HeLa (cervical cancer) it was 30 to 50%. Besides, the inhibition at 3.3 µM in assay [4] was at least 50%. Further, the inhibition at 10 µM (in assay [1]; with HepG2 (liver cancer); in assay [2]; in assay [3]; in the assay with SW480 (colon cancer); in the assay on HeLa (cervical cancer)) was at least 50% in each case. In addition, the inhibition at 10 µM in assay [4] is at least 50%.
Turning to `CC1=C(CC(=O)O)c2cc(F)ccc2/C1=C\c1cccc(Sc2ccc(F)cc2)c1` [C42, (Z)-2-(5-Fluoro-1-(3-((4-fluorophenyl)thio)benzylidene)-2-methyl-1H-inden-3-yl)acetic acid], the inhibition at 3.3 µM in assay [1] is 30 to 50%; in the assay on HepG2 (liver cancer) it was under 30%; in assay [2] it was under 30%; in assay [3], under 30%; in the assay on SW480 (colon cancer) it was under 30%; in the assay on HeLa (cervical cancer), under 30%. Further, the inhibition at 3.3 µM in assay [4] is at least 50%. For the same compound, the inhibition at 10 µM (in assay [1]; with HepG2 (liver cancer); in assay [2]; in assay [3]; in the assay on SW480 (colon cancer); with HeLa (cervical cancer)) was at least 50% throughout. In addition, the inhibition at 10 µM in assay [4] was at least 50%.
`COc1ccc(Oc2ccc(/C=C3/C(C)=C(CC(=O)O)c4cc(Cl)ccc43)cc2)cc1` [C82, (Z)-2-(5-Chloro-1-(4-(4-methoxyphenoxy)benzylidene)-2-methyl-1H-inden-3-yl)acetic acid]: the inhibition at 3.3 µM is at least 50% in assay [1]; under 30% in the assay with HepG2 (liver cancer); 30 to 50% in assay [2]; at least 50% in assay [3]; under 30% with SW480 (colon cancer); under 30% with HeLa (cervical cancer). In assay [4], the inhibition at 3.3 µM was at least 50%. In addition, the inhibition at 10 µM in assay [1] was at least 50%; in the assay with HepG2 (liver cancer), at least 50%; in assay [2], at least 50%; in assay [3], at least 50%; in the assay on SW480 (colon cancer) it was under 30%; in the assay on HeLa (cervical cancer), at least 50%. The inhibition at 10 µM in assay [4] is at least 50%. In the assay with SW480 (colon cancer), the inhibition at 30 µM is 30 to 50%.
For the compound `COc1cc(Oc2cccc(/C=C3/C(C)=C(CC(=O)O)c4cc(F)ccc43)c2)ccc1Cl` [C107, (Z)-2-(1-(3-(4-Chloro-3-methoxyphenoxy)benzylidene)-5-fluoro-2-methyl-1H-inden-3-yl)acetic acid], the inhibition at 3.3 µM was at least 50% in assay [1]; under 30% with HepG2 (liver cancer); at least 50% in assay [2]; at least 50% in assay [3]; 30 to 50% in the assay with SW480 (colon cancer); under 30% in the assay with HeLa (cervical cancer). In addition, the inhibition at 3.3 µM in assay [4] was at least 50%. Further, the inhibition at 10 µM (in assay [1]; with HepG2 (liver cancer); in assay [2]; in assay [3]; in the assay on SW480 (colon cancer); in the assay with HeLa (cervical cancer)) was at least 50% each time. For the same compound, the inhibition at 10 µM in assay [4] is at least 50%.
On to `CC1=C(CC(=O)O)c2cc(F)ccc2/C1=C\c1ccc(OCc2cc3ccccc3s2)cc1` [B70, (Z)-2-(1-(4-(Benzo[b]thiophen-2-ylmethoxy)benzylidene)-5-fluoro-2-methyl-1H-inden-3-yl)acetic acid], for which the inhibition at 3.3 µM was at least 50% in assay [1]; at least 50% with HepG2 (liver cancer); at least 50% in assay [2]; 30 to 50% in assay [3]; 30 to 50% in the assay with SW480 (colon cancer); at least 50% in the assay on HeLa (cervical cancer). Also, in assay [4], the inhibition at 3.3 µM was 30 to 50%. The inhibition at 10 µM in assay [1] is at least 50%; in the assay on HepG2 (liver cancer) it was at least 50%; in assay [2], at least 50%; in assay [3], 30 to 50%; with SW480 (colon cancer), at least 50%; in the assay with HeLa (cervical cancer), at least 50%. In assay [4], the inhibition at 10 µM was at least 50%.
With `CC1=C(CC(=O)O)c2cc(F)ccc2/C1=C\c1cccc(CNc2ccccc2)c1` [B14, (Z)-2-(5-Fluoro-2-methyl-1-(3-((phenylamino)methyl)benzylidene)-1H-inden-3-yl)acetic acid], the inhibition at 3.3 µM in assay [1] is under 30%; in the assay on HepG2 (liver cancer), under 30%; in assay [2] it was at least 50%; in assay [3], under 30%; in the assay on SW480 (colon cancer) it was under 30%; in the assay with HeLa (cervical cancer) it was 30 to 50%. The inhibition at 3.3 µM in assay [4] was under 30%. For the same compound, the inhibition at 10 µM in assay [1] is 30 to 50%; with HepG2 (liver cancer), under 30%; in assay [2], at least 50%; in assay [3], under 30%; with SW480 (colon cancer) it was under 30%; with HeLa (cervical cancer), 30 to 50%. The inhibition at 10 µM in assay [4] is 30 to 50%. The inhibition at 30 µM in assay [2] (Compound concentration: 30 μM, read-out: Antiproliferative activity in cancerous cells, A549) lay in the range of 30 to 50%; in assay [3] (A-431, Compound concentration: 30 μM, read-out: Antiproliferative activity in cancerous cells, A431), 30 to 50%; with SW480 (colon cancer), 30 to 50%.
